Source: PubChem BioAssay (NCI)
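Values below derive from 48-hour exposures of cells grown in 96-well plates, with endpoints linearly interpolated between the two concentrations bracketing the appropriate inhibition level. At the TGI there is no net growth.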

Experiments:
Test in all cases: growth of human tumour cells (NCI), 48 h
BT-549 breast = test system: BT-549 breast
COLO 205 colon = test system: COLO 205 colon
DU-145 prostate = test system: DU-145 prostate
MCF7 breast = test system: MCF7 breast
MOLT-4 leukemia = test system: MOLT-4 leukemia
NCI-H226 lung = test system: NCI-H226 lung
NCI-H522 lung = test system: NCI-H522 lung
OVCAR-4 ovarian = test system: OVCAR-4 ovarian
OVCAR-8 ovarian = test system: OVCAR-8 ovarian
RPMI-8226 leukemia = test system: RPMI-8226 leukemia
SK-MEL-5 melanoma = test system: SK-MEL-5 melanoma
UACC-257 melanoma = test system: UACC-257 melanoma
LOX IMVI melanoma = test system: LOX IMVI melanoma

Structure (SMILES)	TGI (BT-549 breast)	TGI (COLO 205 colon)	TGI (DU-145 prostate)	TGI (MCF7 breast)	TGI (MOLT-4 leukemia)	TGI (NCI-H226 lung)	TGI (NCI-H522 lung)	TGI (OVCAR-4 ovarian)	TGI (OVCAR-8 ovarian)	TGI (RPMI-8226 leukemia)	TGI (SK-MEL-5 melanoma)	TGI (UACC-257 melanoma)	TGI (LOX IMVI melanoma)
O=C(Nc1nccs1)NS(=O)(=O)n1cnc2ccccc21	> 100 µM	> 100 µM	> 100 µM	> 100 µM	> 100 µM	> 100 µM	> 100 µM	> 100 µM	> 100 µM	> 100 µM	> 100 µM	> 100 µM	–
O=C1NC(N2CCCCC2)=N/C1=C\c1ccccc1	> 100 µM	> 100 µM	> 100 µM	> 100 µM	> 100 µM	> 100 µM	> 100 µM	> 100 µM	> 100 µM	> 100 µM	–	> 100 µM	> 100 µM
COc1ccc(NC(=S)Nc2c(C)n(C)n(-c3ccccc3)c2=O)cc1	> 100 µM	> 100 µM	> 100 µM	> 100 µM	> 100 µM	> 100 µM	> 100 µM	–	> 100 µM	> 100 µM	> 100 µM	> 100 µM	> 100 µM
C#CCOC(=O)[C@@H](C)c1ccc2cc(OC)ccc2c1	> 100 µM	> 100 µM	> 100 µM	> 100 µM	> 100 µM	> 100 µM	> 100 µM	> 100 µM	> 100 µM	> 100 µM	> 100 µM	> 100 µM	> 100 µM
CC(=O)OCCCCn1cnc2c(Cl)nc(Nc3ccccc3)nc21	> 100 µM	> 100 µM	> 100 µM	> 100 µM	> 100 µM	> 100 µM	87.4 µM	> 100 µM	> 100 µM	> 100 µM	> 100 µM	> 100 µM	> 100 µM
O=C(c1cccc2cc(O)ccc12)c1cn(CCN2CCOCC2)c2ccccc12	56.9 µM	78.8 µM	73 µM	66.8 µM	62.9 µM	87.3 µM	61.4 µM	–	> 100 µM	68.8 µM	55.3 µM	56 µM	39.1 µM
CCNC1=C(NC(=O)CCl)C(=O)c2ccccc2C1=O	> 10 µM	> 10 µM	> 10 µM	47.4 µM	55.5 µM	48.2 µM	32.2 µM	30.7 µM	38.3 µM	> 100 µM	30.3 µM	> 10 µM	–
S=C(S)N1CCN(c2ccccc2)CC1	> 100 µM	> 100 µM	> 100 µM	> 100 µM	–	–	> 100 µM	–	> 100 µM	77.3 µM	> 100 µM	> 100 µM	> 100 µM
CC1(C)CC[C@]2(C(=O)O)CC[C@]3(C)C(=CC[C@@H]4[C@@]5(C)CC[C@H](OC6OC(CO)C(O)C(O)C6O)C(C)(C)[C@@H]5CC[C@]43C)[C@@H]2C1 (stereo not given in full)	2.59 µM	3.21 µM	4.49 µM	3.91 µM	4.55 µM	3.4 µM	2.91 µM	3 µM	3.12 µM	6.08 µM	3.54 µM	3.13 µM	3.23 µM
COc1ccc(/C=C2/SC(c3c(O)ccc4ccccc34)N(NC(=O)CCCCCCCCC(=O)NN3C(=O)/C(=C\c4ccc(OC)c(OC)c4)SC3c3c(O)ccc4ccccc34)C2=O)cc1OC (stereo not given)	> 100 µM	> 29.9 µM	> 100 µM	> 100 µM	2.9 µM	15.9 µM	> 100 µM	> 100 µM	20.2 µM	–	2.29 µM	> 28.5 µM	12.8 µM
C=CCN(c1cc(OC)c2c(c1[N+](=O)[O-])C(C)(SC)C(=O)N2)S(C)(=O)=O (stereo not given)	> 100 µM	> 100 µM	> 100 µM	> 100 µM	–	> 100 µM	> 100 µM	> 100 µM	> 100 µM	> 100 µM	> 100 µM	> 100 µM	> 100 µM
Nc1nc(Cl)c(C=O)c(NCC2(CO)CCC2)n1	> 100 µM	78.3 µM	> 100 µM	> 100 µM	65.5 µM	34 µM	14.7 µM	32.9 µM	33.8 µM	> 100 µM	31.4 µM	> 100 µM	26.9 µM
COc1ccc(C(=O)N(Cc2cccnc2)C(=S)N(Cc2cccnc2)C(=O)c2ccc(OC)cc2)cc1	> 100 µM	> 100 µM	> 100 µM	> 100 µM	> 100 µM	> 100 µM	> 100 µM	> 100 µM	> 100 µM	> 100 µM	> 100 µM	> 100 µM	> 100 µM
COc1cc(C(=O)N(C(=S)OC23CC4CC(CC(C4)C2)C3)c2ccccc2)cc(OC)c1OC	> 100 µM	39 µM	> 100 µM	> 100 µM	21.8 µM	> 100 µM	25.9 µM	> 100 µM	> 100 µM	–	32.9 µM	> 100 µM	–
C(/C=C/Nc1ccc(-c2ccccc2)cc1)=Nc1ccc(-c2ccccc2)cc1	> 100 µM	> 100 µM	> 100 µM	> 100 µM	> 100 µM	> 100 µM	> 100 µM	> 100 µM	> 100 µM	> 100 µM	> 100 µM	> 100 µM	> 100 µM
ClCCc1ccccc1CC1=NCCc2ccccc21	97.9 µM	63.5 µM	> 100 µM	> 100 µM	> 100 µM	> 100 µM	44 µM	> 100 µM	> 100 µM	45.9 µM	47.9 µM	> 100 µM	> 100 µM
C=COC(=O)N1C2CCCC(Cl)(C(C)=O)C1CC2 (stereo not given)	> 100 µM	> 100 µM	> 100 µM	> 100 µM	> 100 µM	> 100 µM	> 100 µM	> 100 µM	> 100 µM	> 100 µM	> 100 µM	> 100 µM	> 100 µM
COc1cc2c3c(c1OC)C(=O)C(=O)C1=C3N(CCC1)CC2	72.6 µM	35.3 µM	> 100 µM	37.2 µM	56.3 µM	–	72.2 µM	62.2 µM	> 100 µM	–	> 100 µM	67 µM	> 100 µM
